From ChEMBL document CHEMBL1156106 (J Med Chem, 2009)

Assays:
Rattus norvegicus [1] = assay: Effect on behavioural activity in ip dosed rat assessed as cocaine-induced lever response pretreated with cocaine by drug-discrimination studies; type: functional
Rattus norvegicus [2] = assay: Effect on behavioural activity in rat assessed as cocaine-induced lever response at 2.5 mg/kg, po pretreated with cocaine for 45 mins by drug-discrimination studies; type: functional
Rattus norvegicus [3] = assay: Effect on behavioural activity in rat assessed as cocaine-induced lever response at 2.5 mg/kg, po pretreated with cocaine for 90 mins by drug-discrimination studies; type: functional
Rattus norvegicus [4] = assay: Effect on behavioural activity in rat assessed as cocaine-induced lever response at 2.5 mg/kg, po pretreated with cocaine for 180 mins by drug-discrimination studies; type: functional
Rattus norvegicus [5] = assay: Effect on behavioural activity in rat assessed as cocaine-induced lever response at 2.5 mg/kg, po pretreated with cocaine for 360 mins by drug-discrimination studies; type: functional
Rattus norvegicus [6] = assay: Effect on behavioural activity in rat assessed as cocaine-induced lever response at 5 mg/kg, po pretreated with cocaine for 45 mins by drug-discrimination studies; type: functional
Rattus norvegicus [7] = assay: Effect on behavioural activity in rat assessed as cocaine-induced lever response at 5 mg/kg, po pretreated with cocaine for 90 mins by drug-discrimination studies; type: functional
Rattus norvegicus [8] = assay: Effect on behavioural activity in rat assessed as cocaine-induced lever response at 5 mg/kg, po pretreated with cocaine for 180 mins by drug-discrimination studies; type: functional
Rattus norvegicus [9] = assay: Effect on behavioural activity in rat assessed as cocaine-induced lever response at 5 mg/kg, po pretreated with cocaine for 360 mins by drug-discrimination studies; type: functional
Rattus norvegicus [10] = assay: Effect on behavioural activity in rat assessed as cocaine-induced lever response at 10 mg/kg, po pretreated with cocaine for 45 mins by drug-discrimination studies; type: functional
Rattus norvegicus [11] = assay: Effect on behavioural activity in rat assessed as cocaine-induced lever response at 10 mg/kg, po pretreated with cocaine for 90 mins by drug-discrimination studies; type: functional
Rattus norvegicus [12] = assay: Effect on behavioural activity in rat assessed as cocaine-induced lever response at 10 mg/kg, po pretreated with cocaine for 180 mins by drug-discrimination studies; type: functional
Rattus norvegicus [13] = assay: Effect on behavioural activity in rat assessed as cocaine-induced lever response at 10 mg/kg, po pretreated with cocaine for 360 mins by drug-discrimination studies; type: functional
Rattus norvegicus [14] = assay: Effect on behavioural activity in rat assessed as cocaine-induced lever response at 25 mg/kg, po pretreated with cocaine for 45 mins by drug-discrimination studies; type: functional
Rattus norvegicus [15] = assay: Effect on behavioural activity in rat assessed as cocaine-induced lever response at 25 mg/kg, po pretreated with cocaine for 90 mins by drug-discrimination studies; type: functional
Rattus norvegicus [16] = assay: Effect on behavioural activity in rat assessed as cocaine-induced lever response at 25 mg/kg, po pretreated with cocaine for 180 mins by drug-discrimination studies; type: functional
Rattus norvegicus [17] = assay: Effect on behavioural activity in rat assessed as cocaine-induced lever response at 25 mg/kg, po pretreated with cocaine for 360 mins by drug-discrimination studies; type: functional
Rattus norvegicus [18] = assay: Effect on behavioural activity in rat assessed as cocaine-induced lever response at 50 mg/kg, po pretreated with cocaine for 45 mins by drug-discrimination studies; type: functional
Rattus norvegicus [19] = assay: Effect on behavioural activity in rat assessed as cocaine-induced lever response at 50 mg/kg, po pretreated with cocaine for 90 mins by drug-discrimination studies; type: functional
Rattus norvegicus [20] = assay: Effect on behavioural activity in rat assessed as cocaine-induced lever response at 50 mg/kg, po pretreated with cocaine for 180 mins by drug-discrimination studies; type: functional
Rattus norvegicus [21] = assay: Effect on behavioural activity in rat assessed as cocaine-induced lever response at 50 mg/kg, po pretreated with cocaine for 360 mins by drug-discrimination studies; type: functional
Rattus norvegicus [22] = assay: Effect on behavioural activity in rat assessed as cocaine-induced lever response at 100 mg/kg, po pretreated with cocaine for 45 mins by drug-discrimination studies; type: functional
Rattus norvegicus [23] = assay: Effect on behavioural activity in rat assessed as cocaine-induced lever response at 100 mg/kg, po pretreated with cocaine for 90 mins by drug-discrimination studies; type: functional
Rattus norvegicus [24] = assay: Effect on behavioural activity in rat assessed as cocaine-induced lever response at 100 mg/kg, po pretreated with cocaine for 180 mins by drug-discrimination studies; type: functional
[25] = molecular target: T1, Sodium-dependent serotonin transporter (Homo sapiens, UniProt P31645); assay: biochemical; type: cell-based, HEK293
[26] = molecular target: Sodium-dependent noradrenaline transporter (Homo sapiens, UniProt P23975); assay: Displacement of [125I]RTI55 from cloned human NET expressed in HEK293 cells; type: cell-based
Mus musculus [27] = assay: Antidepressant activity in ip dosed mouse assessed as stimulation of locomotor activity; type: functional
Mus musculus [28] = assay: Antidepressant activity in ip dosed mouse assessed as stimulation of locomotor activity relative to cocaine; type: functional
Mus musculus [29] = assay: Antidepressant activity in ip dosed mouse assessed as time to reach peak stimulation of locomotor activity; type: functional
Mus musculus [30] = assay: Antidepressant activity in ip dosed mouse assessed as duration of locomotor activity; type: functional
Rattus norvegicus [31] = assay: Effect on behavioural activity in rat assessed as cocaine-induced lever response at 100 mg/kg, po pretreated with cocaine for 360 mins by drug-discrimination studies; type: functional
Rattus norvegicus [32] = assay: Effect on behavioural activity in po dosed rat assessed as cocaine-induced lever response pretreated with cocaine by drug-discrimination studies; type: functional
Rattus norvegicus [33] = assay: Effect on behavioural activity in rat assessed as cocaine-induced lever response at 2.5 mg/kg, ip pretreated with cocaine for 30 mins by drug-discrimination studies; type: functional; details: route intraperitoneal
Rattus norvegicus [34] = assay: Effect on behavioural activity in rat assessed as cocaine-induced lever response at 10 mg/kg, ip pretreated with cocaine for 30 mins by drug-discrimination studies; type: functional; details: route intraperitoneal
Rattus norvegicus [35] = assay: Effect on behavioural activity in rat assessed as cocaine-induced lever response at 50 mg/kg, ip pretreated with cocaine for 30 mins by drug-discrimination studies; type: functional; details: route intraperitoneal
Rattus norvegicus [36] = assay: Effect on behavioural activity in rat assessed as cocaine-induced lever response at 50 mg/kg, ip pretreated with cocaine for 50 mins by drug-discrimination studies; type: functional; details: route intraperitoneal
Rattus norvegicus [37] = assay: Effect on behavioural activity in rat assessed as cocaine-induced lever response at 100 mg/kg, ip pretreated with cocaine for 50 mins by drug-discrimination studies; type: functional; details: route intraperitoneal
Rattus norvegicus [38] = assay: Effect on behavioural activity in rat assessed as cocaine-induced lever response at 10 mg/kg, ip pretreated with cocaine for 335 mins by drug-discrimination studies; type: functional; details: route intraperitoneal
Rattus norvegicus [39] = assay: Effect on behavioural activity in rat assessed as cocaine-induced lever response at 25 mg/kg, ip pretreated with cocaine for 335 mins by drug-discrimination studies; type: functional; details: route intraperitoneal
Rattus norvegicus [40] = assay: Effect on behavioural activity in rat assessed as cocaine-induced lever response at 50 mg/kg, ip pretreated with cocaine for 335 mins by drug-discrimination studies; type: functional; details: route intraperitoneal
Rattus norvegicus [41] = assay: Effect on behavioural activity in rat assessed as cocaine-induced lever response at 100 mg/kg, ip pretreated with cocaine for 335 mins by drug-discrimination studies; type: functional; details: route intraperitoneal
[42] = molecular target: T1, Sodium-dependent serotonin transporter; assay: Inhibition of [3H]serotonin reuptake at human SERT expressed in HEK293 cells; type: cell-based
Rattus norvegicus [43] = assay: Effect on behavioural activity in rat assessed as cocaine-induced lever response at 25 mg/kg, ip pretreated with cocaine for 240 mins by drug-discrimination studies; type: functional; details: route intraperitoneal
Rattus norvegicus [44] = assay: Effect on behavioural activity in rat assessed as cocaine-induced lever response at 50 mg/kg, ip pretreated with cocaine for 240 mins by drug-discrimination studies; type: functional; details: route intraperitoneal

T1 sequence (P31645 whole entry): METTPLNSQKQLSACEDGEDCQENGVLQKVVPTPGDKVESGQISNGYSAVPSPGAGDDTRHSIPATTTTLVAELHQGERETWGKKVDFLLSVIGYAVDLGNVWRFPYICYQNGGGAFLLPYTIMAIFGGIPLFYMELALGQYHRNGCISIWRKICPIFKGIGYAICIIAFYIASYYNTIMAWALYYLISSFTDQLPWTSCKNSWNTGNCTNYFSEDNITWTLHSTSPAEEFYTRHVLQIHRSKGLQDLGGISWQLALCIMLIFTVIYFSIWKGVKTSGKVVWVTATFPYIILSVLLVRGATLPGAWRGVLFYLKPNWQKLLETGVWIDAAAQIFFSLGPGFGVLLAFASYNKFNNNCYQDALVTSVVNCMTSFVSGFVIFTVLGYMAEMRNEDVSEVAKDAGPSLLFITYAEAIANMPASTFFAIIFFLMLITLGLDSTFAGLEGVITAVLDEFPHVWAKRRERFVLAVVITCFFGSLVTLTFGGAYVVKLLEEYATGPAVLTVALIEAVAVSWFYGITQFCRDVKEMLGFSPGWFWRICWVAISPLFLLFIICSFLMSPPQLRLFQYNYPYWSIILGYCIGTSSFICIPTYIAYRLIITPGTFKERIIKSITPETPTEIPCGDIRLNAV
Sodium-dependent noradrenaline transporter, sequence (P23975 whole entry): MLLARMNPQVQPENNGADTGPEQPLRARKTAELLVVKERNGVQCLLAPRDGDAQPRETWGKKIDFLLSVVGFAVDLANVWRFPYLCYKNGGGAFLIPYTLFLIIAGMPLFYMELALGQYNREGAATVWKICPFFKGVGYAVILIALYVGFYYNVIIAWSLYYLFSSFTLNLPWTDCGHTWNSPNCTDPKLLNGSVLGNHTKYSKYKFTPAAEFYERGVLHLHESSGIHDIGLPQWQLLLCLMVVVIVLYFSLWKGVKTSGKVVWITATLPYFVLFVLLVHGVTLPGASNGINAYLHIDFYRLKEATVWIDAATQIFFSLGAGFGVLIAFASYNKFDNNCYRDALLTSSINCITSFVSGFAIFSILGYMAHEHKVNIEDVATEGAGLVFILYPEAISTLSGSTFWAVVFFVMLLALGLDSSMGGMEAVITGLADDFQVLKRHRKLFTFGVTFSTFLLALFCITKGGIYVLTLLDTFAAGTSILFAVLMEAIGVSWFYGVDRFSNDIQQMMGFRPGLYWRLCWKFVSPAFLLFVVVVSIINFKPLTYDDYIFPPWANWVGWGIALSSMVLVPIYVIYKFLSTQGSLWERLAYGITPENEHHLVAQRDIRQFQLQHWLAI

## CC(NC(C)(C)C)C(=O)c1cc(F)cc(F)c1 (stereo unspecified)
Rattus norvegicus [1]
  ED50: 7.8 mg/kg
Rattus norvegicus [2]
  Activity: 0%
Rattus norvegicus [3]
  Activity: 20%
Rattus norvegicus [4]
  Activity: 0%
Rattus norvegicus [5]
  Activity: 0%
Rattus norvegicus [6]
  Activity: 31%
Rattus norvegicus [7]
  Activity: 7%
Rattus norvegicus [8]
  Activity: 0%
Rattus norvegicus [9]
  Activity: 0%
Rattus norvegicus [10]
  Activity: 0%
Rattus norvegicus [11]
  Activity: 33%
Rattus norvegicus [12]
  Activity: 0%
Rattus norvegicus [13]
  Activity: 3%
Rattus norvegicus [14]
  Activity: 4%
Rattus norvegicus [15]
  Activity: 25%
Rattus norvegicus [16]
  Activity: 0%
Rattus norvegicus [17]
  Activity: 7%
Rattus norvegicus [18]
  Activity: 67%
Rattus norvegicus [19]
  Activity: 58%
Rattus norvegicus [20]
  Activity: 20%
Rattus norvegicus [21]
  Activity: 0%
Rattus norvegicus [22]
  Activity: 18%
Rattus norvegicus [23]
  Activity: 84%
Rattus norvegicus [24]
  Activity: 17%
[25]
  Ki: > 10 µM
[26]
  Ki: > 10 µM
Mus musculus [27]
  ED50: 35 mg/kg
Mus musculus [28]
  Activity: 84%
Mus musculus [29]
  Time to peak locomotor stimulation: 0 min
Mus musculus [30]
  Time: 280 min
Rattus norvegicus [31]
  Activity: 0%
Rattus norvegicus [32]
  ED50: 41.5 mg/kg
Rattus norvegicus [33]
  Activity: 0%
Rattus norvegicus [34]
  Activity: 16.7%
Rattus norvegicus [35]
  Activity: 83.3%

## Cc1cc(C(=O)C(C)NC(C)(C)C)ccc1Br (stereo unspecified)
Rattus norvegicus [36]
  Activity: 16.7%
Rattus norvegicus [37]
  Activity: 66.9%
Mus musculus [27]
  ED50: 12.6 mg/kg
Mus musculus [28]
  Activity: 36%
Mus musculus [29]
  Time to peak locomotor stimulation: 50 min
Mus musculus [30]
  Time: 240 min

## CC(C(=O)c1cccc(Cl)c1)N1CCCCC1 (stereo unspecified)
Rattus norvegicus [38]
  Activity: 7%
Rattus norvegicus [39]
  Activity: 16.5%
Rattus norvegicus [40]
  Activity: 32.7%
Rattus norvegicus [41]
  Activity: 33.7%
Mus musculus [27]
  ED50: 34.7 mg/kg
Mus musculus [28]
  Activity: 45%
Mus musculus [29]
  Time to peak locomotor stimulation: 320 min
Mus musculus [30]
  Time: 30 min

## CC(NC(C)(C)C)C(=O)c1ccc(Cl)c(Cl)c1 (stereo unspecified)
[42]
  IC50: > 10 µM
Mus musculus [27]
  ED50: 26.9 mg/kg
Mus musculus [28]
  Activity: 61%
Mus musculus [29]
  Time to peak locomotor stimulation: 270 min
Mus musculus [30]
  Time: 140 min
Rattus norvegicus [43]
  Activity: 16.7%
Rattus norvegicus [44]
  Activity: 22.4%
